Test results published in US4136116A, “Tricyclic compounds” (Hoffmann-La Roche Inc., priority 1975, dated 1979).
Where a name gives a salt, the structure may show the parent alone.

Tested on: salivation in rabbits
Experiment: Salivation inhibition in rabbits (pilocarpine-increased salivation; anticholinergic action)
Assay type: in vivo
Conditions: light urethane narcosis, 3 mg/kg i.v., pilocarpine 5 mg/kg s.c.
Experimental: The low anticholinergic action can be shown by the lack of salivation inhibition in rabbits: The salivation in rabbits under light urethane narcosis was increased by pilocarpine injection (5 mg/kg. s.c.) and the amount of saliva was measured at 5-minute intervals. The inhibition of salivation is expressed as a percentage based upon the salivation of animals which only received pilocarpine.

% Inhibition of Salivation | Compound
14% | Cc1cccc2c1C=Cc1ccccc1C2=CCC[N+](C)(C)[O-] [1-methyl-5-(3-dimethylaminopropylidene)-5H-dibenzo[a,d]cycloheptene N-oxide hydrochloride]
60% | Cc1cccc2c1C=Cc1ccccc1C2=CCCN(C)C.Cl [1-methyl-5-(3-dimethylaminopropylidene)-5H-dibenzo[a,d]cycloheptene hydrochloride]
60% | CNCCC=C1c2ccccc2C=Cc2c(C)cccc21.Cl [1-methyl-5-(3-methylaminopropylidene)-5H-dibenzo[a,d]cycloheptene hydrochloride]
50% | Cc1cccc2c1CCc1ccccc1C2CCCN(C)C.Cl (stereo not shown) [1-methyl-10,11-dihydro-5-(3-dimethylaminopropyl)-5H-dibenzo[a,d]cycloheptene hydrochloride]

Further lines, the molecule ahead of its results:

Compound | % Inhibition of Salivation
Cc1cccc2c1CCc1ccccc1C2=CCCN(C)C.Cl [1-methyl-10,11-dihydro-5-(3-dimethylaminopropylidene)-5H-dibenzo[a,d]cycloheptene hydrochloride] | 50%
CNCCCC1c2ccccc2CCc2c(C)cccc21.Cl (stereo not shown) [1-methyl-10,11-dihydro-5-(3-methylaminopropyl)-5H-dibenzo[a,d]cycloheptene hydrochloride] | 40%
CNCCC=C1c2ccccc2CCc2c(C)cccc21.Cl [1-methyl-10,11-dihydro-5-(3-methylaminopropylidene)-5H-dibenzo [a,d]cycloheptene hydrochloride] | 50%
